For 25 molecules, IC50 results are on record in US10689378B2, “Triazolopyridine compounds and uses thereof” (Novartis AG, priority 2016, dated 2020).

Experiment [1] has as its target T1, EED (1-441)-His protein (Homo sapiens, UniProt O75530).
T1 construct: 30 nM EED (1-441)-His protein
Briefly: EED-H3K27Me3 peptide competition binding assay by AlphaScreen. The conditions noted are these: EED-H3K27Me3 peptide competition, AlphaScreen; read-out: (a) IC50 EED Alphascreen binding Qualified. In outline: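 Serially diluted compound (12 points, 3-fold) incubated 20 min with 30 nM EED(1-441)-His and 15 nM biotin-H3K27Me3(19-33) peptide in 25 mM HEPES pH 8, 0.02% Tween-20, 0.5% BSA. Ni-chelate acceptor/streptavidin donor beads (10 μg/mL each) added, 1 h rt dark; 615 nm emission normalized to controls, dose-response fit for IC50.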

In experiment [2] the target is wild type PRC2 (wtPRC2) complex (Homo sapiens, UniProt O75530). Put plainly: EED LC-MS assay (SAH production by PRC2). In kind it is biochemical. Particulars: PRC2 LC-MS assay; read-out: (b) IC50 EED LC-MS Qualified. An outline of the steps:
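Pentameric PRC2 (EZH2, SUZ12, EED, Rbap48, AEBP), 12 nM final, preincubated 20 min with compound and SAM, then 1.5 μM biotinylated H3K27me0 peptide, 1 μM SAM, pH 8.0, 120 min at rt. SAH quantified by LC-MS/MS with d4-SAH; control-normalized activity fitted for IC50.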

The test system of experiment [3] is H3K27 methylation in G401 cell. Briefly: ELISA (H3K27 methylation) assay in G401 cells. Particulars: Homo sapiens, G-401, H3K27 methylation ELISA, read-out: (c) IC50 ELISA Qualified. It is filed as cell-based, human. In outline: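 G401 cells treated 48 h with 3-fold dilutions (8 or 12 points, top 20 μM). Acid-extracted histones probed by ELISA for H3K27me3 or H3K27me2 with ECL readout, normalized to total H3. Percent inhibition versus DMSO fitted to dose-response curve for IC50.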
(In general: An ELISA detects its analyte on a solid surface through an enzyme-linked reagent.)

Chain of wild type PRC2 (wtPRC2) complex (O75530 whole entry): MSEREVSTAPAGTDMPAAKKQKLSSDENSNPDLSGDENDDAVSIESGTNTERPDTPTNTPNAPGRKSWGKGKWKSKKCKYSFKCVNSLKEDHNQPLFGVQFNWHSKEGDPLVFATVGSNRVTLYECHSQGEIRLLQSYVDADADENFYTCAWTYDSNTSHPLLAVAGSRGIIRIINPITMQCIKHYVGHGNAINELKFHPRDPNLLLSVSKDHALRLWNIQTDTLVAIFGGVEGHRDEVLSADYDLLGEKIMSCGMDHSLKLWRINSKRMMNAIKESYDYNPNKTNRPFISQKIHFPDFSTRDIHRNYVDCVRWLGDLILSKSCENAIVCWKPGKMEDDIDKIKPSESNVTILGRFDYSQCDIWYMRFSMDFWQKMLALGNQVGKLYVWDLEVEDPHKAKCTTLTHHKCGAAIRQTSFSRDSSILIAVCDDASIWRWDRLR
Chain of wild type PRC2 (wtPRC2) complex (Q15910 whole entry partner): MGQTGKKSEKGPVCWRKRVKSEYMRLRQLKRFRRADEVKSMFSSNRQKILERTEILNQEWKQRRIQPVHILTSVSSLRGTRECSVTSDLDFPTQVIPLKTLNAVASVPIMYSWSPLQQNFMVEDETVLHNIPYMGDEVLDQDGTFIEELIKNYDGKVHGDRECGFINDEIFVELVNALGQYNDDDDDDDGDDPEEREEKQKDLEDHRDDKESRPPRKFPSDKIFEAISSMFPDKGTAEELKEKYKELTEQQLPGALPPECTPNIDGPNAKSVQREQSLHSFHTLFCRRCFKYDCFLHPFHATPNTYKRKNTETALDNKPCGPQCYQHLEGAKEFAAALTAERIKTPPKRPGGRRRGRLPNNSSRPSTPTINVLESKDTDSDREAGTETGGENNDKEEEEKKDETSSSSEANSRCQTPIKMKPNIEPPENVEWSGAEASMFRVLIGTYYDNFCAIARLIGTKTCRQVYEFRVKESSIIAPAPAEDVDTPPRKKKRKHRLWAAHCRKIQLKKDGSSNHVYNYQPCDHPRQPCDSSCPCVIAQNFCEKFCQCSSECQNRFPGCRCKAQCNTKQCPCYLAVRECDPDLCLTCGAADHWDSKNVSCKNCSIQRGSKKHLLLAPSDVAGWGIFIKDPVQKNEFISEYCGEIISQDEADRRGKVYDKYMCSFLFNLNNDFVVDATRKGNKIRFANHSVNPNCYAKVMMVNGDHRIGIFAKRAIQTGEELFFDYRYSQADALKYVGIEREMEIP
Chain of wild type PRC2 (wtPRC2) complex (Q15022 whole entry partner): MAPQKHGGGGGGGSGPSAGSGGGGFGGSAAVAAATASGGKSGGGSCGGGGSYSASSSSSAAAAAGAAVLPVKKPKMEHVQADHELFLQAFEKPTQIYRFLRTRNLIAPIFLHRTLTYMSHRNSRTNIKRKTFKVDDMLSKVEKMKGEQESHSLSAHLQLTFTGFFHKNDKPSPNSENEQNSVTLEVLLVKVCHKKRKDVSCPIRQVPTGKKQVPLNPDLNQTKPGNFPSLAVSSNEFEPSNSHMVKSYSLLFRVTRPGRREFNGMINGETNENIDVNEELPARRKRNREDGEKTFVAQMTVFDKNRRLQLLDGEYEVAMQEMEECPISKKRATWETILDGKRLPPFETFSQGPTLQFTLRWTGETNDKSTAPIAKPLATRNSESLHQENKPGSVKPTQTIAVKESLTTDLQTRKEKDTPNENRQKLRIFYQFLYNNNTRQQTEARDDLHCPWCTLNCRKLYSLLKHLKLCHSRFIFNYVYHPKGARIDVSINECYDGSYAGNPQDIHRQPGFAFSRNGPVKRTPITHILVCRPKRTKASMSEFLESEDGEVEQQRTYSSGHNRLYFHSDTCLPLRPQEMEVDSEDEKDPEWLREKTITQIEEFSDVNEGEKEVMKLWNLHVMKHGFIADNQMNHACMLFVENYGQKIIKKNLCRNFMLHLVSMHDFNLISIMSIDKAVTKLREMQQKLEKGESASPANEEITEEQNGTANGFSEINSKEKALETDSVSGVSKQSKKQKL
Chain of wild type PRC2 (wtPRC2) complex (Q09028 whole entry partner): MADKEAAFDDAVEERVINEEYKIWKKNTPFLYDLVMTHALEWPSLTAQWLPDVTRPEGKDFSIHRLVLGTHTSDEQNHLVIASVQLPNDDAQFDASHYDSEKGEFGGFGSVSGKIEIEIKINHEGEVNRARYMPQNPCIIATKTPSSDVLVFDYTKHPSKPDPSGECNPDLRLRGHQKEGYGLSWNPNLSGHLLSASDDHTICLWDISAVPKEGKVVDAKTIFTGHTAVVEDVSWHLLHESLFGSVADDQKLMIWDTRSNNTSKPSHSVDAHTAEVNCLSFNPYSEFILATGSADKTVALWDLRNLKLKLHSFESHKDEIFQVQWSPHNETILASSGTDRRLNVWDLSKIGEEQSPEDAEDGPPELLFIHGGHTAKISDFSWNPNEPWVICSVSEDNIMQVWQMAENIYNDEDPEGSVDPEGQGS
Chain of wild type PRC2 (wtPRC2) complex (Q6ZN18 whole entry partner): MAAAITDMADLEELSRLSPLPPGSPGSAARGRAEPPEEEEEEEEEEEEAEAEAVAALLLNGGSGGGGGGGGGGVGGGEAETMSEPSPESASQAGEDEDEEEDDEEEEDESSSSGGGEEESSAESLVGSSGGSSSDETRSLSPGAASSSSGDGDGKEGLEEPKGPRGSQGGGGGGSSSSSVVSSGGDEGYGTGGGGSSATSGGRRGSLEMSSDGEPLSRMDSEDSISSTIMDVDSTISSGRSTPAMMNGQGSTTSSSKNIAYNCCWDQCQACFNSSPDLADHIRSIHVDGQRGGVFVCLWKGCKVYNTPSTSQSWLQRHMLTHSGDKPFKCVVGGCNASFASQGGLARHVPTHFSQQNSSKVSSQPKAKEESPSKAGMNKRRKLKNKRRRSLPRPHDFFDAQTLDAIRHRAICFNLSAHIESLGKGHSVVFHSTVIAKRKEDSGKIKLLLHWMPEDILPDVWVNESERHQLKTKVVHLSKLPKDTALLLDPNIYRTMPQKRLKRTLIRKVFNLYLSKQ
T1 sequence (O75530 whole entry): as the sequence (O75530 whole entry) above

The term IC50 denotes the point on the concentration scale where inhibition reaches its midpoint. Turning to `COc1cccc(F)c1CNc1ccc(-c2cccnc2CO)c2nncn12` [Example 303, (3-(5-((2-fluoro-6-methoxy benzyl)amino)-[1,2,4]triazolo[4,3-a]pyridin-8-yl)pyridin-2-yl)methanol], the 50% inhibitory concentration (IC50) in experiment [1] was 27.6 nM; in experiment [2], 20.4 nM; in experiment [3], 15.5 nM.

For the molecule `COc1cccc(F)c1CNc1ccc(-c2cnc(OC(F)F)cc2C)c2nncn12` [Example 304, 8-(6-(difluoromethoxy)-4-methylpyridin-3-yl)-N-(2-fluoro-6-methoxybenzyl)-[1,2,4]triazolo[4,3-a]pyridin-5-amine], the IC50 in experiment [1] was 26.6 nM; in experiment [2], 48.3 nM; in experiment [3], 18 nM.

In the case of `COc1cccc(F)c1CNc1ccc(-c2cc(C)ncc2C)c2nncn12` [Example 305, 8-(2,5-dimethylpyridin-4-yl)-N-(2-fluoro-6-methoxybenzyl)-[1,2,4]triazolo[4,3-a] pyridin-5-amine], the IC50 in experiment [1] came out at 52.6 nM; in experiment [2] it was 94.6 nM; in experiment [3], 28.2 nM.

In the case of `COc1cccc(F)c1CNc1ccc(-c2cc(C(F)F)ncc2C)c2nncn12` [Example 306, 8-(2-(difluoromethyl)-5-methylpyridin-4-yl)-N-(2-fluoro-6-methoxybenzyl)-[1,2,4]triazolo[4,3-a]pyridin-5-amine], the IC50 in experiment [1] amounted to 30.9 nM; in experiment [2] it was 41.8 nM; in experiment [3], 15.5 nM.

Take `COc1cc(C)c(-c2ccc(NCc3c(F)cccc3OC)n3cnnc23)cn1` [Example 308, N-(2-fluoro-6-methoxybenzyl)-8-(6-methoxy-4-methylpyridin-3-yl)-[1,2,4] triazolo[4,3-a]pyridin-5-amine]: the IC50 in experiment [1] is 18.6 nM; in experiment [2] it was 117 nM; in experiment [3], 17.4 nM.

Take `COc1cccc(F)c1CNc1ccc(-c2ccc(O)nc2C)c2nncn12` [Example 309, 5-(5-((2-fluoro-6-methoxybenzyl)amino)-[1,2,4]triazolo[4,3-a]pyridin-8-yl)-6-methylpyridin-2-ol]: the IC50 amounted to 15.8 nM in experiment [1], 60.6 nM in experiment [2] and 11.6 nM in experiment [3].

`COc1ccc(-c2ccc(NCc3c(F)cccc3OC)n3cnnc23)c(C)n1` [Example 310, N-(2-fluoro-6-methoxybenzyl)-8-(6-methoxy-2-methylpyridin-3-yl)-[1,2,4] triazolo[4,3-a]pyridin-5-amine]: the IC50 in experiment [1] amounted to 13.6 nM; in experiment [2] it was 56.1 nM; in experiment [3], 16.6 nM.

`COc1cccc(F)c1CNc1ccc(-c2cn(CCO)nc2C(F)(F)F)c2nncn12` [Example 312, 2-(4-(5-((2-fluoro-6-methoxybenzyl)amino)-[1,2,4]triazolo[4,3-a]pyridin-8-yl)-3-(trifluoromethyl)-1H-pyrazol-1-yl)ethanol]: the IC50 in experiment [1] came out at 31.2 nM; in experiment [2] it was 171 nM; in experiment [3], 22.5 nM.

On to `COc1cccc(F)c1CNc1ccc(-c2cn(C)nc2C(F)F)c2nncn12` [Example 313, 8-(3-(difluoromethyl)-1-methyl-1H-pyrazol-4-yl)-N-(2-fluoro-6-methoxybenzyl)-[1,2,4]triazolo[4,3-a]pyridin-5-amine], for which the IC50 in experiment [1] came out at 3.4 nM; in experiment [2], 14.7 nM; in experiment [3], 4 nM.

On to `COc1cc(F)cc(F)c1CNc1ccc(-c2ccc(C)nc2C(F)F)c2nncn12` [Example 314, N-(2,4-difluoro-6-methoxybenzyl)-8-(2-(difluoromethyl)-6-methylpyridin-3-yl)-[1,2,4]triazolo [4,3-a]pyridin-5-amine], for which the IC50 in experiment [1] was 22.3 nM; in experiment [2], 110 nM; in experiment [3], 18.6 nM.

Turning to `COc1cccc(F)c1CNc1ccc(-c2ccc(C)nc2C(F)F)c2nncn12` [Example 315, 8-(2-(difluoromethyl)-6-methylpyridin-3-yl)-N-(2-fluoro-6-methoxybenzyl)-[1,2,4]triazolo[4,3-a]pyridin-5-amine], the IC50 in experiment [1] was 7.7 nM; in experiment [2], 21.5 nM; in experiment [3], 7.8 nM.

`COc1cccc(F)c1CNc1ccc(-c2cnc(C)cc2C(F)F)c2nncn12` [Example 316, 8-(4-(difluoromethyl)-6-methylpyridin-3-yl)-N-(2-fluoro-6-methoxybenzyl)-[1,2,4]triazolo[4,3-a]pyridin-5-amine]: the IC50 in experiment [1] is 15.7 nM; in experiment [2], 215 nM; in experiment [3], 17.3 nM.

As for `COc1cc(F)cc(F)c1CNc1ccc(-c2cnc(C)cc2C(F)F)c2nncn12` [Example 317, N-(2,4-difluoro-6-methoxybenzyl)-8-(4-(difluoromethyl)-6-methylpyridin-3-yl)-[1,2,4]triazolo [4,3-a]pyridin-5-amine], the IC50 in experiment [1] amounted to 35.6 nM; in experiment [2], 218 nM; in experiment [3], 53.2 nM.

As for `COc1ccc(-c2ccc(NCc3c(F)cc(F)cc3OC)n3cnnc23)c(C)n1` [Example 319, N-(2,4-difluoro-6-methoxybenzyl)-8-(6-methoxy-2-methylpyridin-3-yl)-[1,2,4] triazolo[4,3-a]pyridin-5-amine], the figures for the IC50 in experiment [1], in experiment [2] and in experiment [3] were 28.5 nM, 130 nM and 40.7 nM, respectively.

Regarding `COc1ncc(-c2ccc(NCc3c(F)cccc3OC)n3cnnc23)c(C)n1` [Example 322, N-(2-fluoro-6-methoxybenzyl)-8-(2-methoxy-4-methylpyrimidin-5-yl)-[1,2,4]triazolo[4,3-a]pyridin-5-amine], the values for the IC50 in experiment [1], in experiment [2] and in experiment [3] were 9.1 nM, 32.3 nM and 7.1 nM, respectively.

Turning to `COc1ncc(-c2ccc(NCc3c(F)cc(F)cc3OC)n3cnnc23)c(C)n1` [Example 323, N-(2,4-difluoro-6-methoxybenzyl)-8-(2-methoxy-4-methylpyrimidin-5-yl)-[1,2,4]triazolo[4,3-a]pyridin-5-amine], the IC50 in experiment [1] is 24.6 nM; in experiment [2] it was 31.2 nM; in experiment [3], 14.3 nM.

For `COc1cc(F)cc(F)c1CNc1ccc(-c2ccc(C#N)nc2C)c2nncn12` [Example 324, 5-(5-((2,4-difluoro-6-methoxybenzyl)amino)-[1,2,4]triazolo[4,3-a]pyridin-8-yl)-6-methylpicolinonitrile], the IC50 in experiment [1] was found to be 17.9 nM; in experiment [2], 63.8 nM; in experiment [3], 15.9 nM.

For the molecule `COc1cccc(F)c1CNc1ccc(-c2cnccn2)c2nncn12` [Example 325, N-(2-fluoro-6-methoxybenzyl)-8-(pyrazin-2-yl)-[1,2,4]triazolo[4,3-a]pyridin-5-amine], the figures for the IC50 in experiment [1], in experiment [2] and in experiment [3] were 37 nM, 141 nM and 33.8 nM, respectively.

As for `COc1cccc(F)c1CNc1ccc(-c2cc(Cl)cnc2C)c2nncn12` [Example 326, 8-(5-chloro-2-methylpyridin-3-yl)-N-(2-fluoro-6-methoxybenzyl)-[1,2,4]triazolo[4,3-a] pyridin-5-amine], the IC50 amounted to 26.1 nM in experiment [1], 71.6 nM in experiment [2] and 29.8 nM in experiment [3].

As for `COc1c(F)ccc(F)c1CNc1ccc(-c2cccnc2C)c2nncn12` [Example 327, N-(3,6-difluoro-2-methoxybenzyl)-8-(2-methylpyridin-3-yl)-[1,2,4]triazolo[4,3-a] pyridin-5-amine], the IC50 in experiment [1] was determined as 48.3 nM; in experiment [2] it was 172 nM; in experiment [3], 51.9 nM.

On to `COc1ncccc1CNc1ccc(-c2cccnc2C)c2nncn12` [Example 328, N-((2-methoxypyridin-3-yl)methyl)-8-(2-methylpyridin-3-yl)-[1,2,4]triazolo[4,3-a] pyridin-5-amine], for which the IC50 was determined as 73.5 nM in experiment [1], 284 nM in experiment [2] and 76.3 nM in experiment [3].

On to `COc1cc(F)cc(F)c1CNc1ccc(-c2cnc(C)cc2C)c2nncn12` [Example 329, N-(2,4-difluoro-6-methoxybenzyl)-8-(4,6-dimethylpyridin-3-yl)-[1,2,4]triazolo [4,3-a]pyridin-5-amine], for which the figures for the IC50 in experiment [1], in experiment [2] and in experiment [3] were 31.1 nM, 1360 nM and 48 nM, respectively.

For the molecule `COc1cccc(F)c1CNc1ccc(-c2cn(C)nc2CO)c2nncn12` [Example 330, (4-(5-((2-fluoro-6-methoxy benzyl)amino)-[1,2,4]triazolo[4,3-a]pyridin-8-yl)-1-methyl-1H-pyrazol-3-yl) methanol], the results for the IC50 in experiment [1], in experiment [2] and in experiment [3] were 24 nM, 96.2 nM and 24 nM, respectively.

Consider `COc1cccc(F)c1CNc1ccc(-c2cnc(OC(C)C)nc2C)c2nncn12` [Example 332, N-(2-fluoro-6-methoxybenzyl)-8-(2-isopropoxy-4-methylpyrimidin-5-yl)-[1,2,4] triazolo[4,3-a]pyridin-5-amine], for which the figures for the IC50 in experiment [1], in experiment [2] and in experiment [3] were 8.2 nM, 26.6 nM and 7.3 nM, respectively.

`COc1c(F)ccc(F)c1CNc1ccc(-c2cnc(C)nc2C)c2nncn12` [Example 333, N-(3,6-difluoro-2-methoxybenzyl)-8-(2,4-dimethylpyrimidin-5-yl)-[1,2,4] triazolo[4,3-a]pyridin-5-amine]: the IC50 in experiment [1] is 95.1 nM; in experiment [2] it was 286 nM; in experiment [3], 67.6 nM.
